Reference: patent EP1166782A2, “Anti-retroviral pharmaceutical compositions” (Yang, Chi-Chiang, priority 2000, dated 2002)
Read-outs that look alike come from different tables or passages of the source.

Key:
[1] = tested on: macrophage-tropic (NL-43); assay: P24 quantification (P24 EIA) in infected PBMCs, NL-43; format: cell-based, HIV-1; conditions: PBMC; for concentrations of the viral P24 antigen, NL43(+): (+) original concentration of compound maintained after washing; for concentrations of the viral P24 antigen, NL43(-): (-) compound removed after washing
Procedure: (§1) PBMCs were treated with various concentrations of CAPE, MC and PEDMC provided in Example 2 and simultaneously infected with […] and macrophage and T cells dual tropic (89.6) HIV-1 isolates. The next day, the added compounds were removed by washing methods or maintained at the same concentration. Samples were divided into two groups and the upernatants of the culture medium were collected at the 3 and 7 days after infection, respectively. The use of P24 EIA Reagent Kit of Abbott Laboratory compares the concentrations of viral P24 antigen with or without the compounds tested.

[2] = tested on: various HIV isolates (NL-43, JRCSF or 89.6); assay: P24 quantification, summary statements over all isolates; format: cell-based, HIV-1; conditions: Figures 3-5; PBMC infected with NL-43, JRCSF or 89.6
Procedure: as §1

T cells-tropic (JRCSF) = assay: P24 quantification (P24 EIA) in infected PBMCs, JRCSF; format: cell-based, HIV-1; conditions: PBMC; for concentrations of the viral P24 antigen, JRCSF(+): (+) original concentration of compound maintained after washing; for concentrations of the viral P24 antigen, JRCSF(-): (-) compound removed after washing
Procedure: as §1

[3] = tested on: macrophage and T cells dual tropic (89.6); assay: P24 quantification (P24 EIA) in infected PBMCs, 89.6; format: cell-based, HIV-1; conditions: PBMC; for concentrations of the viral P24 antigen, 89.6(+): (+) original concentration of compound maintained after washing; for concentrations of the viral P24 antigen, 89.6(-): (-) compound removed after washing
Procedure: as §1

[4] = tested on: Peripheral Blood Mononuclear Cells (PBMC); conditions: for The numbers of dead cells in 400 cells' count / % viability: 48 hours; for The numbers of dead cells in 400 cells' count: control 9 dead cells; for % viability: viable cells versus control (391);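 as to all read-outs here: trypan blue dye exclusion, cells stained and counted from quadruplicate dishes, DMSO vehicle kept under 0.5%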
Procedure: Viability of the cells was assayed by the trypan blue dye exclusion method. […] The concentration of DMSO was adjusted to be less than 0.5%. Cells from quadruplicated dishes were washed once with Hank's Balanced Salt Solution (HBSS). According to the process, the floating dead cells will be separated from the live monolayer cells. Then the cells were stained with trypan blue and counted. The total number of viable cells in the control group was considered as 100% viability and the agent-treated cells were compared with the control group for the determination of % viability. The % viability of agent-treated cells was calculated from the total number of viable cells in the control group and in the agent-treated group.

cells = assay: Cellular activities in microculture tetrazolium (MTT) tests; format: cell-based
Procedure: The cellular activities were tested according to method as described in Alley M.C. et al, Cancer Res. 1988; 48(3):589-601. The principle of the method resides in that live cells can reduce MTT., i.e., 3-[4,5-dimethylthiazol-2-yl]-2,5-diphenyltetrazolium bromide)(tetrazolium salt) to formazan crystal through the dehydrogenase metabolism in Mitochondria. The crystal was dissolved in propanol and OD values were determined at 570 nm. The OD values can indicate the numbers of the live cells. The growth conditions of the cells were observed firstly. The cells were diluted to 2x10^4 cells/ml. 100µl sample taken by micropipet was placed in a 96-well plate. The plate was cultured for 24 hours as 37°C and 100µl of the compounds to be tested, which were prepared in medium, were added in each well. […] After culture for 4 hours, supernatant liquid was absorbed and 100 µl DMSO and 10µl /well was added. Each well was homogeneously mixed. The absorbance was determined at 570 nm.

Structure (SMILES): COc1ccc(C=CC(=O)OCCc2ccccc2)cc1OC [PEDMC, phenethyl dimethyl caffeate]
- concentrations of the viral P24 antigen, NL43(+) ([1]; 0.1 µM): 1000 unit
- concentrations of the viral P24 antigen, NL43(-) ([1]; 0.1 µM): 1000 unit
- concentrations of the viral P24 antigen, NL43(+) ([1]; 0.5 µM): 1000 unit
- concentrations of the viral P24 antigen, NL43(-) ([1]; 0.5 µM): 1000 unit
- concentrations of the viral P24 antigen, NL43(+) ([1]; 1 µM): 1000 unit
- concentrations of the viral P24 antigen, NL43(-) ([1]; 1 µM): 1000 unit
- concentrations of the viral P24 antigen, NL43(+) ([1]; 5 µM): 1000 unit
- concentrations of the viral P24 antigen, NL43(-) ([1]; 5 µM): 1000 unit
- concentrations of the viral P24 antigen, NL43(+) ([1]; 10 µM): 1000 unit
- concentrations of the viral P24 antigen, NL43(-) ([1]; 10 µM): 1000 unit
- concentrations of the viral P24 antigen, NL43(+) ([1]; 25 µM): 1000 unit
- concentrations of the viral P24 antigen, NL43(-) ([1]; 25 µM): 1000 unit
- concentrations of the viral P24 antigen, NL43(+) ([1]; 50 µM): 1000 unit
- concentrations of the viral P24 antigen, NL43(-) ([1]; 50 µM): 1000 unit
- concentrations of the viral P24 antigen, NL43(+) ([1]; 100 µM): 1000 unit
- concentrations of the viral P24 antigen, NL43(-) ([1]; 100 µM): 1000 unit
- concentrations of the viral P24 antigen, NL43(+) ([1]; 200 µM): 890.43 unit
- concentrations of the viral P24 antigen, NL43(-) ([1]; 200 µM): 981.43 unit
- concentrations of the viral P24 antigen, NL43(+) ([1]; 400 µM): 640.7 unit
- concentrations of the viral P24 antigen, NL43(-) ([1]; 400 µM): 898.4 unit
- viral replications (result in words) [2]: significantly inhibited viral replications
- concentrations of the viral P24 antigen, JRCSF(+) (T cells-tropic (JRCSF); 0.1 µM): 1000 unit
- concentrations of the viral P24 antigen, JRCSF(-) (T cells-tropic (JRCSF); 0.1 µM): 1000 unit
- concentrations of the viral P24 antigen, JRCSF(+) (T cells-tropic (JRCSF); 0.5 µM): 1000 unit
- concentrations of the viral P24 antigen, JRCSF(-) (T cells-tropic (JRCSF); 0.5 µM): 1000 unit
- concentrations of the viral P24 antigen, JRCSF(+) (T cells-tropic (JRCSF); 1 µM): 1000 unit
- concentrations of the viral P24 antigen, JRCSF(-) (T cells-tropic (JRCSF); 1 µM): 1000 unit
- concentrations of the viral P24 antigen, JRCSF(+) (T cells-tropic (JRCSF); 5 µM): 1000 unit
- concentrations of the viral P24 antigen, JRCSF(-) (T cells-tropic (JRCSF); 5 µM): 1000 unit
- concentrations of the viral P24 antigen, JRCSF(+) (T cells-tropic (JRCSF); 10 µM): 1000 unit
- concentrations of the viral P24 antigen, JRCSF(-) (T cells-tropic (JRCSF); 10 µM): 1000 unit
- concentrations of the viral P24 antigen, JRCSF(+) (T cells-tropic (JRCSF); 25 µM): 1000 unit
- concentrations of the viral P24 antigen, JRCSF(-) (T cells-tropic (JRCSF); 25 µM): 1000 unit
- concentrations of the viral P24 antigen, JRCSF(+) (T cells-tropic (JRCSF); 50 µM): 1000 unit
- concentrations of the viral P24 antigen, JRCSF(-) (T cells-tropic (JRCSF); 50 µM): 1000 unit
- concentrations of the viral P24 antigen, JRCSF(+) (T cells-tropic (JRCSF); 100 µM): 892.45 unit
- concentrations of the viral P24 antigen, JRCSF(-) (T cells-tropic (JRCSF); 100 µM): 1000 unit
- concentrations of the viral P24 antigen, JRCSF(+) (T cells-tropic (JRCSF); 200 µM): 452.46 unit
- concentrations of the viral P24 antigen, JRCSF(-) (T cells-tropic (JRCSF); 200 µM): 1000 unit
- concentrations of the viral P24 antigen, JRCSF(+) (T cells-tropic (JRCSF); 400 µM): 348.96 unit
- concentrations of the viral P24 antigen, JRCSF(-) (T cells-tropic (JRCSF); 400 µM): 869.4 unit
- concentrations of the viral P24 antigen, 89.6(+) ([3]; 0.1 µM): 1000 unit
- concentrations of the viral P24 antigen, 89.6(-) ([3]; 0.1 µM): 1000 unit
- concentrations of the viral P24 antigen, 89.6(+) ([3]; 0.5 µM): 1000 unit
- concentrations of the viral P24 antigen, 89.6(-) ([3]; 0.5 µM): 1000 unit
- concentrations of the viral P24 antigen, 89.6(+) ([3]; 1 µM): 1000 unit
- concentrations of the viral P24 antigen, 89.6(-) ([3]; 1 µM): 1000 unit
- concentrations of the viral P24 antigen, 89.6(+) ([3]; 5 µM): 1000 unit
- concentrations of the viral P24 antigen, 89.6(-) ([3]; 5 µM): 1000 unit
- concentrations of the viral P24 antigen, 89.6(+) ([3]; 10 µM): 965.48 unit
- concentrations of the viral P24 antigen, 89.6(-) ([3]; 10 µM): 932.67 unit
- concentrations of the viral P24 antigen, 89.6(+) ([3]; 25 µM): 886.42 unit
- concentrations of the viral P24 antigen, 89.6(-) ([3]; 25 µM): 927.4 unit
- concentrations of the viral P24 antigen, 89.6(+) ([3]; 50 µM): 747.3 unit
- concentrations of the viral P24 antigen, 89.6(-) ([3]; 50 µM): 681.42 unit
- concentrations of the viral P24 antigen, 89.6(+) ([3]; 100 µM): 238.49 unit
- concentrations of the viral P24 antigen, 89.6(-) ([3]; 100 µM): 647 unit
- concentrations of the viral P24 antigen, 89.6(+) ([3]; 200 µM): 187.59 unit
- concentrations of the viral P24 antigen, 89.6(-) ([3]; 200 µM): 539.82 unit
- concentrations of the viral P24 antigen, 89.6(+) ([3]; 400 µM): 84.85 unit
- concentrations of the viral P24 antigen, 89.6(-) ([3]; 400 µM): 494.91 unit
- The numbers of dead cells in 400 cells' count ([4]; 0.1 µM): 11
- % viability ([4]; 0.1 µM): 389/391 (99.5%)
- The numbers of dead cells in 400 cells' count ([4]; 0.5 µM): 10
- % viability ([4]; 0.5 µM): 390/391 (99.7%)
- The numbers of dead cells in 400 cells' count ([4]; 1 µM): 7
- % viability ([4]; 1 µM): 393/391 (100.5%)
- The numbers of dead cells in 400 cells' count ([4]; 5 µM): 11
- % viability ([4]; 5 µM): 389/391 (99.5%)
- The numbers of dead cells in 400 cells' count ([4]; 10 µM): 9
- % viability ([4]; 10 µM): 391/391 (100%)
- The numbers of dead cells in 400 cells' count ([4]; 25 µM): 8
- % viability ([4]; 25 µM): 392/391 (100.3%)
- The numbers of dead cells in 400 cells' count ([4]; 50 µM): 10
- % viability ([4]; 50 µM): 390/391 (99.7%)
- The numbers of dead cells in 400 cells' count ([4]; 100 µM): 10
- % viability ([4]; 100 µM): 390/391 (99.7%)
- The numbers of dead cells in 400 cells' count ([4]; 200 µM): 7
- % viability ([4]; 200 µM): 393/391 (100.5%)
- The numbers of dead cells in 400 cells' count ([4]; 400 µM): 6
- % viability ([4]; 400 µM): 394/391 (100.8%)
- viabilities of PBMC under high-dose versus low-dose treatments (result in words) ([4]; high dose up to 400 µM compared with 0.1-10 µM): no substantial differences
- MTT 24h, cellular activities (cells; 0.1 µM): 92.38 relative percentage
- MTT 48h, cellular activities (cells; 0.1 µM): 97.31 relative percentage
- MTT 24h, cellular activities (cells; 0.5 µM): 98.72 relative percentage
- MTT 48h, cellular activities (cells; 0.5 µM): 98.72 relative percentage
- MTT 24h, cellular activities (cells; 1 µM): 98.26 relative percentage
- MTT 48h, cellular activities (cells; 1 µM): 105.28 relative percentage
- MTT 24h, cellular activities (cells; 5 µM): 94.33 relative percentage
- MTT 48h, cellular activities (cells; 5 µM): 104.07 relative percentage
- MTT 24h, cellular activities (cells; 10 µM): 98.72 relative percentage
- MTT 48h, cellular activities (cells; 10 µM): 98.08 relative percentage
- MTT 24h, cellular activities (cells; 25 µM): 107.27 relative percentage
- MTT 48h, cellular activities (cells; 25 µM): 98.78 relative percentage
- MTT 24h, cellular activities (cells; 50 µM): 102.03 relative percentage
- MTT 48h, cellular activities (cells; 50 µM): 97.15 relative percentage
- MTT 24h, cellular activities (cells; 100 µM): 106.06 relative percentage
- MTT 48h, cellular activities (cells; 100 µM): 97.74 relative percentage
- MTT 24h, cellular activities (cells; 200 µM): 97.93 relative percentage
- MTT 48h, cellular activities (cells; 200 µM): 96.32 relative percentage
- MTT 24h, cellular activities (cells; 400 µM): 94.8 relative percentage
- MTT 48h, cellular activities (cells; 400 µM): 93.76 relative percentage
- cellular activities in MTT tests (result in words) (cells; Figures 1 and 2, 24 and 48 hours): no substantial effects
